Results on ten compounds are retold here after US9567345B2, “Pharmaceutically active pyrazolo-triazine derivatives” (LEAD DISCOVERY CENTER GMBH, priority 2012, dated 2017).

Read-outs that look alike come from different tables or passages of the source. Where only a bound is given, the exact number is not on record here.

Format in all cases: biochemical
One test concerns the target CDK7/CycH/Mat1 (Homo sapiens, UniProt P50613). In words: CDK7 Enzymatic Activity Assay (Lance Kinase Activity Assay, FRET). The method in brief:
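Ulight-MBP peptide phosphorylation by CDK7/CycH/Mat1 in HEPES 50 mM pH 7.5, MgCl2, EGTA, DTT, Tween-20; 1 h at room temperature, then EDTA stop with Eu-anti-phospho-MBP antibody for 1 h and TR-FRET read. Compounds in 8-point 1:3 DMSO series; IC50 from sigmoidal dose-response fit.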

A further test has as its target T1, CDK2/CycA (Homo sapiens, UniProt P24941).
T1 construct: purchased Proqinase
The test can be described thus: CDK2 Enzymatic Activity Assay (Lance Kinase Activity Assay, FRET). The following applies: for IC50: Table 5B, class symbols per IC50 [nM] ranges of b581, read-out: CDK2: Selectivity of CDK7 inhibition over CDK2 inhibition. Here is the method:
This protocol describes how the Lance Kinase Activity Assay was performed to determine IC50 values of compounds of general formula (I) against CDK/Cyclin complexes. The principle behind this enzymatic assay is based upon the phosphorylation of the Ulight-Peptide Substrat. It is detected by using a specific EU-labeled anti-phospho peptide antibody.
Binding of an inhibitor to the kinase prevents phosphorylation of the Ulight-MBP Substrat, resulting in a loss of FRET.
CDK2 Enzymatic Activity Assay
The compounds of general formula (I) exemplary summarized in Table 1 were diluted from a 10 mM DMSO stock solution 1:10 in a total volume of 15 μl DMSO. This compound predilution was then serial diluted 1:3 over 8 steps in DMSO and briefly spun down. Each compound solution was now diluted 1:20 in Enzymatic Buffer (HEPES: 50 mM, pH: 7.5; MgCl2: 10 mM; EGTA: 1 mM; DTT: 2 mM; Tween-20: 0.01%), mixed thoroughly and spun down.
For positive controls, 2 μl of DMSO working solution were mixed with 6 μl CDK2/CycA/substrate working solution and 2 μl ATP working solution. Positive and negative controls were calculated from at least 8 different wells. The 384 well plates were mixed in a Teleshaker plate mixer (Beckman Coulter, Brea, Calif., USA) at 2000 rpm for 40 sec, and incubated for 1 h at room temperature before addition of 10 μl LANCE Detection Buffer (EDTA: […]; Eu-Anti-P-MBP: 4 nM) per well. Plates were mixed in a Teleshaker plate mixer (Beckman Coulter, Brea, Calif., USA) at 2000 rpm for 40 sec, followed by incubation with Detection Buffer for 1 h, and reading. […] IC50 values were determined from the sigmoidal dose response curves with the software Quattro Workflow (Quattro GmbH, Munich, Germany).

For another test, the target named is CDK9/Cyclin T1 (Homo sapiens, UniProt P50750). The test can be described thus: CDK9 Enzymatic Activity Assay (Lance Kinase Activity Assay, FRET). The following applies: for IC50: Table 5B, class symbols per IC50 [nM] ranges of b581, read-out: CDK9: Selectivity of CDK7 inhibition over CDK9 inhibition. The method in brief: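 CDK9/cyclin T1 phosphorylation of a ULight-MBP peptide was run for 1 h at room temperature in pH 7.5 HEPES buffer with MgCl2, EGTA, DTT and Tween-20. It was followed by 1 h with Eu-anti-phospho-MBP antibody (4 nM) in EDTA detection buffer. TR-FRET loss gave IC50 from 8-point, 1:3 sigmoidal dose-response curves.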

Setting [1] is: CDK7/CycH/Mat1, 25 μM ATP final, class ranges, read-out: CDK7: IC50 [nM] for CDK7 inhibition.

Sequence of CDK7/CycH/Mat1 (P50613 whole entry): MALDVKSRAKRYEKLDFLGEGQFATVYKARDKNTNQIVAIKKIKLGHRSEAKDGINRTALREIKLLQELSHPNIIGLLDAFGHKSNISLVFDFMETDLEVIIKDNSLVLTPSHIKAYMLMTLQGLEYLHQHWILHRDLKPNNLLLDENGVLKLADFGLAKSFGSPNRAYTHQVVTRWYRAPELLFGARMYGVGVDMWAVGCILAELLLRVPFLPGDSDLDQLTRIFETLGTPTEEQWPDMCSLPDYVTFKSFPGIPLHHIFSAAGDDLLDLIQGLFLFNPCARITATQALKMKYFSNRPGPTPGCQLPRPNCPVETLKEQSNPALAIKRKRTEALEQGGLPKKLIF
Sequence of CDK9/Cyclin T1 (P50750 whole entry): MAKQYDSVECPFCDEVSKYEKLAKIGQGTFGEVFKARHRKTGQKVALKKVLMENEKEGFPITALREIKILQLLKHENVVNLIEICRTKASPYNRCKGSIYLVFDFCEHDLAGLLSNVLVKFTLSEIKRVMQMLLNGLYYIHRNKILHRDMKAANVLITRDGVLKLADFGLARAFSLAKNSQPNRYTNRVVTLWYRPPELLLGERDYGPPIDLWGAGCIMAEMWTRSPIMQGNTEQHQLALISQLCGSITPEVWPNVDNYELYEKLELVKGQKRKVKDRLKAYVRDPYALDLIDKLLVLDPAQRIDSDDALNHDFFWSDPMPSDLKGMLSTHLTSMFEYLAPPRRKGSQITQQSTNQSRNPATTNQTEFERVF
Sequence of CDK9/Cyclin T1 (O60563 whole entry partner): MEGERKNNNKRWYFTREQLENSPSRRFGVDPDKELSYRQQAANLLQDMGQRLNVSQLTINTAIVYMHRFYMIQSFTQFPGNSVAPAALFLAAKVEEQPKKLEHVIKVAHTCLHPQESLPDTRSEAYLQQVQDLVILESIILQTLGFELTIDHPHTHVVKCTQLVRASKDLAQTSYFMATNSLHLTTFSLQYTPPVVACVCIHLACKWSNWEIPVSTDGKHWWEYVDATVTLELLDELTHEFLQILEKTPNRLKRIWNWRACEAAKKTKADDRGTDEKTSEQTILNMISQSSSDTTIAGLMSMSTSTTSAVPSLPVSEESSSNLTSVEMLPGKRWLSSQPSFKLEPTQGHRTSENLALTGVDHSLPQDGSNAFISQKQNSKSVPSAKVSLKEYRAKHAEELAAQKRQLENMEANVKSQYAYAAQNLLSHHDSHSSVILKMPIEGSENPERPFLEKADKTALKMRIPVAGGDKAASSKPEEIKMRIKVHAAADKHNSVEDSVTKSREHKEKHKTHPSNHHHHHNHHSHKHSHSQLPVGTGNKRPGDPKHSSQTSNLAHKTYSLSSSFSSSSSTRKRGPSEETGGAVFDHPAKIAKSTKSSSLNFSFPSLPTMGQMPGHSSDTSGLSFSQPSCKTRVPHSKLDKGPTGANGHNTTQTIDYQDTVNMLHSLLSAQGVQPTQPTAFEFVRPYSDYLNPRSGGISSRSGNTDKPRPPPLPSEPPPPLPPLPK

`CC(C)COC(=O)Oc1ccccc1CNc1nc(O[C@@H]2CCCNC2)nc2c(C(C)C)cnn12` [(VII-149), (R)-isobutyl (2-(((8-isopropyl-2-(piperidin-3-yloxy)pyrazolo[1,5-a][1,3,5]triazin-4-yl)amino)methyl)phenyl) carbonate]: the IC50 at CDK7/CycH/Mat1 (setting [1]) is 10 to 25 nM; at CDK2/CycA, more than 2500 nM; at CDK9/Cyclin T1, more than 2500 nM.
`CC(C)c1cnn2c(NCc3ccccc3-n3ccnc3)nc(OC3CCN(C)CC3)nc12` [(VII-59), N-(2-(1H-imidazol-1-yl)benzyl)-8-isopropyl-2-((1-methylpiperidin-4-yl)oxy)pyrazolo[1,5-a][1,3,5]triazin-4-amine]: the IC50 was less than 5 nM at CDK7/CycH/Mat1 (setting [1]); less than 5 nM on CDK7/CycH/Mat1 (Table 6, read-out: IC50 CDK7); more than 2500 nM at CDK9/Cyclin T1. Also, the “Selectivity CDK7 over CDK2” value on CDK2/CycA (Table 6) was found to be 3926 fold. Also, the “Selectivity CDK7 over CDK9” value on CDK9/Cyclin T1 (Table 6) is reported as 9140 fold.
Take `CC(C)c1cnn2c(NCc3ccccc3-n3cccn3)nc(CN(C)CCN3CCCC3)nc12` [(XXX-3), N-(2-(1H-pyrazol-1-yl)benzyl)-8-isopropyl-2-((methyl(2-(pyrrolidin-1-yl)ethyl)amino)methyl)pyrazolo[1,5-a][1,3,5]triazin-4-amine]: the IC50 on CDK7/CycH/Mat1 (setting [1]) was more than 25 nM; at CDK2/CycA, more than 2500 nM; at CDK9/Cyclin T1 it was more than 2500 nM.
As to `CC(C)c1cnn2c(NCc3cccc4ccncc34)nc(O[C@@H]3CCCNC3)nc12` [(VII-31), (R)-8-isopropyl-N-(isoquinolin-8-ylmethyl)-2-(piperidin-3-yloxy)pyrazolo[1,5-a][1,3,5]triazin-4-amine], the IC50 at CDK7/CycH/Mat1 (setting [1]) was less than 5 nM; on CDK2/CycA it was 50 to 500 nM; at CDK9/Cyclin T1 it was less than 50 nM.
For the compound `CC(C)c1cnn2c(NCc3cccc4nonc34)nc(N3CCC4(CCCN4)CC3)nc12` [(VIII-36), N-(benzo[c][1,2,5]oxadiazol-4-ylmethyl)-8-isopropyl-2-(1,8-diazaspiro[4.5]decan-8-yl)pyrazolo[1,5-a][1,3,5]triazin-4-amine], the IC50 is less than 5 nM on CDK7/CycH/Mat1 (setting [1]), more than 2500 nM at CDK2/CycA and 500 to 2500 nM on CDK9/Cyclin T1.
With `CC(C)c1cnn2c(NCc3ccccc3OC(F)F)nc(OC3CCN(C)CC3)nc12` [(VII-72), N-(2-(difluoromethoxy)benzyl)-8-isopropyl-2-((1-methylpiperidin-4-yl)oxy)pyrazolo[1,5-a][1,3,5]triazin-4-amine], the IC50 was less than 5 nM at CDK7/CycH/Mat1 (setting [1]), 50 to 500 nM at CDK2/CycA and 50 to 500 nM on CDK9/Cyclin T1.
For `CC(C)c1cnn2c(NCc3ccccc3-n3cccn3)nc(OC3C=CCNC3)nc12` (centres unmarked) [(VII-120), N-(2-(1H-pyrazol-1-yl)benzyl)-8-isopropyl-2-((1,2,3,6-tetrahydropyridin-3-yl)oxy)pyrazolo[1,5-a][1,3,5]triazin-4-amine], the IC50 at CDK7/CycH/Mat1 (setting [1]) was 5 to 10 nM; at CDK2/CycA, 50 to 500 nM; on CDK9/Cyclin T1, more than 2500 nM.
In the case of `CC(C)c1cnn2c(NCc3cc(F)ccc3-n3cccn3)nc(O[C@@H]3CCCNC3)nc12` [(VII-41), (R)-N-(5-fluoro-2-(1H-pyrazol-1-yl)benzyl)-8-isopropyl-2-(piperidin-3-yloxy)pyrazolo[1,5-a][1,3,5]triazin-4-amine], the IC50 on CDK7/CycH/Mat1 (setting [1]) is less than 5 nM; at CDK2/CycA, less than 50 nM; on CDK9/Cyclin T1 it was 50 to 500 nM.
`CC(C)c1cnn2c(NCc3ccccc3OS(=O)C(C)(C)C)nc(O[C@@H]3CCCNC3)nc12` (stereo partly drawn) [(VII-148), 2-(((8-isopropyl-2-((R)-piperidin-3-yloxy)pyrazolo[1,5-a][1,3,5]triazin-4-yl)amino)methyl)phenyl 2-methylpropane-2-sulfinate]: the IC50 on CDK7/CycH/Mat1 (setting [1]) is less than 5 nM; at CDK2/CycA it was 50 to 500 nM; at CDK9/Cyclin T1, 50 to 500 nM.
With `CC(C)c1cnn2c(NCc3ccccc3-n3cccn3)nc(NCC3CCNC3)nc12` (centres unmarked) [(VIII-052), N4-(2-(1H-pyrazol-1-yl)benzyl)-8-isopropyl-N2-(pyrrolidin-3-ylmethyl)pyrazolo[1,5-a][1,3,5]triazine-2,4-diamine], the IC50 at CDK7/CycH/Mat1 (setting [1]) is more than 25 nM; at CDK2/CycA, more than 2500 nM; on CDK9/Cyclin T1, more than 2500 nM.
